What was measured:
[1] = tested on: Mus musculus; assay: Inhibition of chymotrypsin-like activity of 20S proteasome in BALB/c mouse adrenal gland 40 mg/kg, po after 1 hr; format: functional; design: scale not given: the % may be the effect or the level left
[2] = Chemical stability in simulated intestinal fluid assessed as compound remaining at 4 uM after 15 mins; format: physicochemical; conditions: read-out: Stability
[3] = Cytotoxicity against multidrug resistance transporter expressing doxorubicin resistant human MESSA cells assessed as cell viability after 72 hrs by CellTiter-Glo luminescent assay; format: functional, cell-based; conditions: MES-SA
[4] = Inhibition of chymotrypsin-like activity of 20S proteasome in human MOLT4 cells after 1 hr by […]; format: cell-based; conditions: MOLT-4, 1 h
[5] = Inhibition of chymotrypsin-like activity of human 20S proteasome by spectrofluorimetry
[6] = Cytotoxicity against human MESSA cells assessed as cell viability after 72 hrs by CellTiter-Glo luminescent assay; format: functional, cell-based; conditions: MES-SA
[7] = Metabolic stability in mouse liver microsomes assessed as extraction ratio at 1 uM; format: ADME, Microsome
[8] = tested on: Mus musculus; assay: Inhibition of chymotrypsin-like activity of 20S proteasome in BALB/c mouse adrenal gland at 20 mg/kg, po after 1 hr; format: functional; design: scale not given: the % may be the effect or the level left
[9] = Inhibition of chymotrypsin-like activity of human 20S proteasome beta 5 subunit by proteasome active site ELISA
[10] = Metabolic stability in human liver microsomes assessed as extraction ratio at 1 uM; format: ADME, Microsome

SMILES	remaining at 0.25 h, 4 µM [2]	IC50 [5]	hepatic extraction ratio at 1 µM [7]	IC50 [9]	hepatic extraction ratio at 1 µM [10]	Activity [1]	IC50 [3]	IC50 [4]	IC50 [6]	Activity [8]
COC[C@H](NC(=O)c1cc(C)on1)C(=O)N[C@@H](CC#N)C(=O)N[C@@H](CC(C)C)C(=O)[C@@]1(C)CO1	100%	40 nM	0.28 dimensionless ratio				941 nM	91 nM	29 nM	40%
CC(C)C[C@H](NC(=O)[C@H](Cc1ccccc1)NC(=O)CN1CCOCC1)C(=O)[C@@]1(C)CO1		> 1000 nM					> 1000 nM	> 1000 nM	> 1000 nM	
CC(C)C[C@H](NC(=O)c1ncc[nH]1)C(=O)N[C@@H](Cc1ccccc1)C(=O)N[C@@H](CC(C)C)C(=O)[C@@]1(C)CO1		107 nM					> 1000 nM	271 nM	136 nM	
CC(C)C[C@H](NC(=O)[C@H](Cc1ccccc1)NC(=O)c1cnccn1)B(O)O [BORTEZOMIB]				8.7 nM						
CC(C)C[C@H](NC(=O)c1cnco1)C(=O)N[C@@H](Cc1ccccc1)C(=O)N[C@@H](CC(C)C)C(=O)[C@@]1(C)CO1		27 nM					505 nM	84 nM	159 nM	
CC(C)C[C@H](NC(=O)c1cnccn1)C(=O)N[C@@H](Cc1ccccc1)C(=O)N[C@@H](CC(C)C)C(=O)[C@@]1(C)CO1		752 nM					> 1000 nM	> 1000 nM	> 1000 nM	
CC(C)C[C@H](NC(=O)[C@H]1CCCO1)C(=O)N[C@@H](Cc1ccccc1)C(=O)N[C@@H](CC(C)C)C(=O)[C@@]1(C)CO1		34 nM					110 nM	154 nM	69 nM	
COCC[C@H](NC(=O)c1cc(C)on1)C(=O)N[C@@H](Cc1ccccc1)C(=O)N[C@@H](CC(C)C)C(=O)[C@@]1(C)CO1	80%	26 nM				47%	286 nM	69 nM	164 nM	
CC(C)C[C@H](NC(=O)c1ccoc1)C(=O)N[C@@H](Cc1ccccc1)C(=O)N[C@@H](CC(C)C)C(=O)[C@@]1(C)CO1		34 nM					125 nM	116 nM	54 nM	
CC(C)C[C@H](NC(=O)c1ccn(C)n1)C(=O)N[C@@H](Cc1ccccc1)C(=O)N[C@@H](CC(C)C)C(=O)[C@@]1(C)CO1		76 nM					205 nM	290 nM	137 nM	
CC(C)C[C@H](NC(=O)[C@@H]1CCCO1)C(=O)N[C@@H](Cc1ccccc1)C(=O)N[C@@H](CC(C)C)C(=O)[C@@]1(C)CO1		42 nM					159 nM	180 nM	130 nM	
COC[C@H](NC(=O)c1cc(C)on1)C(=O)N[C@H](C(=O)N[C@@H](CC(C)C)C(=O)[C@@]1(C)CO1)C(C)C	95%	44 nM	0.79 dimensionless ratio		0.63 dimensionless ratio		636 nM	147 nM	57 nM	12%
CC(C)C[C@H](NC(=O)c1cc[nH]n1)C(=O)N[C@@H](Cc1ccccc1)C(=O)N[C@@H](CC(C)C)C(=O)[C@@]1(C)CO1		36 nM					> 1000 nM	188 nM	109 nM	
CC(C)C[C@H](NC(=O)c1nccn1C)C(=O)N[C@@H](Cc1ccccc1)C(=O)N[C@@H](CC(C)C)C(=O)[C@@]1(C)CO1		122 nM					164 nM	161 nM	67 nM	
CC[C@H](NC(=O)[C@H](COC)NC(=O)c1cc(C)on1)C(=O)N[C@@H](CC(C)C)C(=O)[C@@]1(C)CO1	100%	54 nM	0.47 dimensionless ratio				468 nM	248 nM	92 nM	90%

Further lines, with some results ahead:

remaining at 0.25 h, 4 µM [2]	IC50 [5]	hepatic extraction ratio at 1 µM [7]	IC50 [9]	hepatic extraction ratio at 1 µM [10]	SMILES	Activity [1]	IC50 [3]	IC50 [4]	IC50 [6]	Activity [8]
60%	5.1 nM				CC(C)C[C@H](NC(=O)[C@H](Cc1ccccc1)NC(=O)[C@H](Cc1ccncc1)NC(=O)c1cc(CN2CCOCC2)on1)C(=O)[C@@]1(C)CO1	96%	> 1000 nM	14 nM	8.7 nM	
90%	1.6 nM				Cc1cc(C(=O)N[C@@H](Cc2cccnc2)C(=O)N[C@@H](Cc2ccccc2)C(=O)N[C@@H](CC(C)C)C(=O)[C@@]2(C)CO2)no1	70%	543 nM	27 nM	39 nM	
	10 nM				CC(C)C[C@H](NC(=O)c1cccs1)C(=O)N[C@@H](Cc1ccccc1)C(=O)N[C@@H](CC(C)C)C(=O)[C@@]1(C)CO1		120 nM	40 nM	34 nM	
	7.4 nM				CC(C)C[C@H](NC(=O)c1ccon1)C(=O)N[C@@H](Cc1ccccc1)C(=O)N[C@@H](CC(C)C)C(=O)[C@@]1(C)CO1		123 nM	50 nM	73 nM	
90%	2.8 nM				Cc1cc(C(=O)N[C@@H](Cc2ccncc2)C(=O)N[C@@H](Cc2ccccc2)C(=O)N[C@@H](CC(C)C)C(=O)[C@@]2(C)CO2)no1	28%	271 nM	8.6 nM	8.6 nM	
90%	19 nM				COCC[C@H](NC(=O)c1cc(CN2CCOCC2)on1)C(=O)N[C@@H](Cc1ccccc1)C(=O)N[C@@H](CC(C)C)C(=O)[C@@]1(C)CO1	81%	1140 nM	42 nM	24 nM	
15%	6.9 nM				CC(C)C[C@H](NC(=O)[C@H](Cc1ccccc1)NC(=O)[C@H](Cc1cscn1)NC(=O)c1cc(CN2CCOCC2)on1)C(=O)[C@@]1(C)CO1	93%	841 nM	59 nM	7.9 nM	
	13 nM				Cc1cc(NC(=O)N[C@@H](CC(C)C)C(=O)N[C@@H](Cc2ccccc2)C(=O)N[C@@H](CC(C)C)C(=O)[C@@]2(C)CO2)no1		> 1000 nM	47 nM	182 nM	
	5.8 nM				CC(C)C[C@H](NC(=O)c1ccno1)C(=O)N[C@@H](Cc1ccccc1)C(=O)N[C@@H](CC(C)C)C(=O)[C@@]1(C)CO1		82 nM	65 nM	58 nM	
90%	9.2 nM	0.95 dimensionless ratio		0.87 dimensionless ratio	COC[C@H](NC(=O)c1cc(C)on1)C(=O)N[C@@H](Cc1ccsc1)C(=O)N[C@@H](CC(C)C)C(=O)[C@@]1(C)CO1		181 nM	46 nM	25 nM	117%
75%	13 nM	0.96 dimensionless ratio		0.94 dimensionless ratio	COC[C@H](NC(=O)c1cc(C)on1)C(=O)N[C@@H](CC1CCCCC1)C(=O)N[C@@H](CC(C)C)C(=O)[C@@]1(C)CO1		353 nM	78 nM	210 nM	56%
90%	20 nM	0.45 dimensionless ratio		0.83 dimensionless ratio	COC[C@H](NC(=O)c1cc(C)on1)C(=O)N[C@@H](CC(C)C)C(=O)N[C@@H](CC(C)C)C(=O)[C@@]1(C)CO1		366 nM	41 nM	45 nM	37%
	20 nM				CC(C)C[C@H](NC(=O)c1ccncc1)C(=O)N[C@@H](Cc1ccccc1)C(=O)N[C@@H](CC(C)C)C(=O)[C@@]1(C)CO1		> 1000 nM	55 nM	33 nM	
80%	5.7 nM				COC[C@H](NC(=O)c1cc(CN2CCOCC2)on1)C(=O)N[C@@H](Cc1ccccc1)C(=O)N[C@@H](CC(C)C)C(=O)[C@@]1(C)CO1	57%	147 nM	26 nM	13 nM	
	1.2 nM				COCc1cc(C(=O)N[C@@H](CC(C)C)C(=O)N[C@@H](Cc2ccccc2)C(=O)N[C@@H](CC(C)C)C(=O)[C@@]2(C)CO2)no1		28 nM	8.1 nM	23 nM	
	12 nM				CC(C)C[C@H](NC(=O)c1ccnnc1)C(=O)N[C@@H](Cc1ccccc1)C(=O)N[C@@H](CC(C)C)C(=O)[C@@]1(C)CO1		> 1000 nM	50 nM	18 nM	
	6.3 nM				CC(C)C[C@H](NC(=O)c1cc(C(C)C)on1)C(=O)N[C@@H](Cc1ccccc1)C(=O)N[C@@H](CC(C)C)C(=O)[C@@]1(C)CO1		30 nM	17 nM	63 nM	
20%	13 nM				Cc1cc(C(=O)N[C@@H](Cc2ccccn2)C(=O)N[C@@H](Cc2ccccc2)C(=O)N[C@@H](CC(C)C)C(=O)[C@@]2(C)CO2)no1	23%	219 nM	78 nM	45 nM	
100%	16 nM	0.86 dimensionless ratio		0.85 dimensionless ratio	COC[C@H](NC(=O)c1cc(C)on1)C(=O)N[C@@H](Cc1cscn1)C(=O)N[C@@H](CC(C)C)C(=O)[C@@]1(C)CO1		367 nM	25 nM	17 nM	39%
20%	5.2 nM				CC(C)C[C@H](NC(=O)[C@H](Cc1ccccc1)NC(=O)[C@H](Cc1ccccn1)NC(=O)c1cc(CN2CCOCC2)on1)C(=O)[C@@]1(C)CO1	92%	421 nM	31 nM	11 nM	
